# Assay results as given in ChEMBL document CHEMBL1121846, “Synthesis and pharmacological evaluation of sulfonium analogues of dopamine: nonclassical dopamine agonists” (J Med Chem, 1981).
# pIC50: −log10 of the molar value.
# Tests used:
# Rattus norvegicus [1] = species on record: Rattus norvegicus; assay: Contralateral rotation produced by intrastriatal injection in rats with unilateral 6-hydroxydopamine-induced lesions of the substantia nigra at 30 nmol; turns/5 min; type: functional
# Rattus norvegicus [2] = species on record: Rattus norvegicus; assay: Contralateral rotation produced by intrastriatal injection in rats with unilateral 6-hydroxydopamine-induced lesions of the substantia nigra at 10 nmol; turns/5 min; type: functional
# Rattus norvegicus [3] = species on record: Rattus norvegicus; assay: Maximal degree of inhibition was determined from displacement of [3H]dopamine binding to rat brain striatal membrane; type: functional
# Rattus norvegicus [4] = species on record: Rattus norvegicus; assay: Contralateral rotation produced by intrastriatal injection in rats with unilateral 6-hydroxydopamine-induced lesions of the substantia nigra at 90 nmol; turns/5 min; type: functional
# Rattus norvegicus [5] = species on record: Rattus norvegicus; assay: Compound concentration required to reduce specific binding of tritiated dopamine to rat brain striatal membrane
# Rattus norvegicus [6] = species on record: Rattus norvegicus; assay: Contralateral rotation produced by intrastriatal injection in rats with unilateral 6-hydroxydopamine-induced lesions of the substantia nigra at 2 microL; turns/5 min; type: functional
# Rattus norvegicus [7] = species on record: Rattus norvegicus; assay: Compound concentration required to reduce specific binding of tritiated dopamine to rat brain striatal membrane by 50 % was reported
# Rattus norvegicus [8] = species on record: Rattus norvegicus; details: Striatum, 1 uM
# Rattus norvegicus [9] = species on record: Rattus norvegicus; assay: Contralateral rotation produced by intrastriatal injection in rats with unilateral 6-hydroxydopamine-induced lesions of the substantia nigra at 10 nmol; type: functional
# Rattus norvegicus [10] = species on record: Rattus norvegicus; assay: Maximal degree of inhibition at 3-30 uM concentration was determined from displacement of [3H]-dopamine binding to rat brain striatal membrane; type: functional
inhibition (Rattus norvegicus [3]) [%],pIC50 (Rattus norvegicus [5]),SMILES,Rate of rotation (Rattus norvegicus [1]),Rate of rotation (Rattus norvegicus [2]),Rate of rotation (Rattus norvegicus [4]),further results
19,6.36,C[S+](C)CCc1ccc(O)c(O)c1.[I-],20.75,11.25,31.5,–
–,–,O=C1O[C@H]([C@@H](O)CO)C(O)=C1O [ASCORBIC ACID],–,–,–,Rate of rotation (Rattus norvegicus [6]): 4.5
–,–,NCCc1ccc(O)c(O)c1 [DOPAMINE],–,39.75,–,pIC50 (Rattus norvegicus [7]): 7.54; Total binding (Rattus norvegicus [8]): 72%
29,6.43,C[S+](C)CC(=O)c1ccc(O)c(O)c1.[I-],25.33,–,38.83,Rate of rotation (Rattus norvegicus [9]): 8.4 turns 5min-1
–,–,C[S+](C)C,–,–,–,inhibition (Rattus norvegicus [10]): 9%
